Test results as given in patent US20050059585A1, “Methionine aminopeptidase-2 inhibitors and methods of use thereof” (Praecis Pharmaceuticals Inc., priority 2000, published 2005).

Legend:
Assay type in all cases: cell-based
SU-DHL-16 = assay: Inhibition of GC derived B cell lymphoma lines in culture; conditions: Homo sapiens, SU-DHL-16, 120 h, read-out: Growth Inhibition Relative to Vehicle Control, GI50%
[1] = system: human umbilical vein endothelial cells (HUVEC); assay: human endothelial cell growth assay (Huvec assay); conditions: Homo sapiens, HUVEC; read-out: IC50 (pM), Huvec Assay
Description: For the human endothelial cell growth assay, human umbilical vein endothelial cells (HUVEC) were maintained in Clonetics endothelial growth medium (EGM) in a 37° C. humidified incubator. Cells were detached with trypsin and pelleted by centrifugation at 300×g for 5 minutes at room temperature. HUVEC were added to 96-well plates at 5,000 cells/well. After incubating for 6 hours, the medium was replaced with 0.2 ml fresh EGM supplemented with 0.5 nM bFGF and the desired concentration of test angiogenesis inhibitor compound. Test angiogenesis inhibitor compounds were initially dissolved in ethanol at stock concentrations of either 10 mM or 0.1 mM, and subsequently diluted in EGM to obtain concentrations from […] to 10 μM. After 48 hours at 37° C., the medium was replaced with fresh bFGF-supplemented EGM and test angiogenesis inhibitor compound. Following incubation for an additional 48 hours at 37° C. MTT (3-[4,5-dimethylthiazol-2-yl]-2,5-diphenyl-tetrazolium bromide) was added to 1 mg/ml. After 2-4 hours at 37° C. the medium was replaced with 0.1 ml/well isopropanol. The plates were placed on a shaker for 15 minutes at room temperature and analyzed in a Labsystems Multiskan plate spectrophotometer at an optical density of 570 nm.

[2] = system: human lymphoblast SR cells; assay: Inhibition of SR cell line in culture, 3H-thymidine incorporation assay
Description: […] Incubations were conducted for 3, 5 or 6 days after which cell proliferation relative to vehicle treatment was determined using a ^3H-thymidine incorporation assay. Medium was replaced and fresh drug was added on day 3 for the 5 and 6 day assays.

MALME-3M = assay: tumor cell line panel, SRB growth assay; conditions: Homo sapiens, Melanoma, 48 hours
Description: (§1) The compound of example 5 was also evaluated against a panel of cancer cell lines (Alley, M.C. et al. […] Cancer Research 48: 589-601; Grever, M. R., et al. (1992) Seminars in Oncology, Vol. 19, No. 6, pp 622-638; Boyd, M. R., and Paull, K. D. (1995) Drug Development Research 34: 91-109). The human tumor cell lines of the cancer screening panel were grown in RPMI 1640 medium containing 5% fetal bovine serum and 2 mM L-glutamine. Cells were inoculated into 96 well microtiter plates in 100 μL at plating densities ranging from 5,000 to 40,000 cells/well depending on the doubling time of individual cell lines. After cell inoculation, the microtiter plates were incubated at 37° C., 5 % CO2, 95 % air and 100 % relative humidity for 24 hours prior to addition of experimental drugs.
(§2) After the 24 hour incubation period, two plates of each cell line were fixed in situ with TCA, to represent a measurement of the cell population for each cell line at the time of drug addition (Tz). Experimental drugs were solubilized in dimethyl sulfoxide at 400-fold the desired final maximum test concentration and stored frozen prior to use. At the time of drug addition, an aliquot of frozen concentrate was thawed and diluted to twice the desired final maximum test concentration with complete medium containing 50 μg/ml gentamicin. Additional four, 10-fold or ½ log serial dilutions were made to provide a total of five drug concentrations plus control. Aliquots of 100 μl of these different drug dilutions were added to the appropriate microtiter wells already containing 100 μl of medium, resulting in the required final drug concentrations.
(§3) Following drug addition, the plates were incubated for an additional 48 hours at 37° C., 5 % CO2, 95 % air, and 100 % relative humidity. For adherent cells, the assay was terminated by the addition of cold TCA. Cells were fixed in situ by the gentle addition of 50 μl of cold 50 % (w/v) TCA (final concentration, 10% TCA) and incubated for 60 minutes at 4° C. The supernatant was discarded, and the plates were washed five times with tap water and air dried. Sulforhodamine B (SRB) solution (100 μl) at 0.4 % (w/v) in 1 % acetic acid were added to each well, and plates were incubated for 10 minutes at room temperature. After staining, unbound dye was removed by washing five times with 1 % acetic acid and the plates were air dried. Bound stain was subsequently solubilized with 10 mM trizma base, and the absorbance was read on an automated plate reader at a wavelength of 515 nm. For suspension of the cells, the methodology used was the same except that the assay was terminated by fixing settled cells at the bottom of the wells by gently adding 50 μl of 80 % TCA (final concentration, 16% TCA). Using the seven absorbance measurements [time zero, (Tz), control growth, (C), and test growth in the presence of drug at the five concentration levels (Ti)], the percentage growth was calculated at each of the drug concentrations levels.
(§4) Percentage growth inhibition was calculated as: [(Ti−Tz)/(C−Tz)]×100 for concentrations for which Ti>/=Tz [(Ti−Tz)/Tz]×100 for concentrations for which Ti<Tz.
(§5) Growth inhibition of 50% (GI50) was calculated from [(Ti−Tz)/(C−Tz)]×100=50, which is the drug concentration resulting in a 50% reduction in the net protein increase (as measured by SRB staining) in control cells during the drug incubation. The G150 was calculated for each of the cell lines if the level of activity is reached; however, if the effect was not reached or is exceeded, the value for that parameter is expressed as greater or less than the maximum (10^−4 M) or minimum (10^−8 M) concentration tested.

MDA-MB-231/ATCC = assay: tumor cell line panel, SRB growth assay; conditions: Homo sapiens, Breast, 48 hours
Description: as §1, §2, §3, §4, §5

UACC-257 = assay: tumor cell line panel, SRB growth assay; conditions: Homo sapiens; UACC-257, Melanoma, 48 hours
Description: as §1, §2, §3, §4, §5

SN12C = assay: tumor cell line panel, SRB growth assay; conditions: Homo sapiens, Renal, 48 hours
Description: as §1, §2, §3, §4, §5

SF-268 = assay: tumor cell line panel, SRB growth assay; conditions: Homo sapiens; SF-268, CNS, 48 hours
Description: as §1, §2, §3, §4, §5

M14 = assay: tumor cell line panel, SRB growth assay; conditions: Homo sapiens; M14, Melanoma, 48 hours
Description: as §1, §2, §3, §4, §5

NCI-H23 = assay: tumor cell line panel, SRB growth assay; conditions: Homo sapiens; NCI-H23, Non-Small Cell Lung, 48 hours
Description: as §1, §2, §3, §4, §5

H2 = assay: Inhibition of GC derived B cell lymphoma lines in culture
Ramos = assay: as above; conditions: Burkitt's lymphoma cell line, 0.01-100 nM

CO[C@@H]1[C@H](OC(=O)N[C@@H](C(N)=O)C(C)C)CC[C@]2(CO2)[C@H]1[C@@]1(C)O[C@@H]1CC=C(C)C [Example 5, (1-Carbamoyl-2-methyl-propyl)-carbamic acid-(3R, 4S, 5S, 6R )-5-methoxy-4-[(2R, 3R)-2-methyl-3-(3-methyl-but-2-enyl)-oxiranyl]-1-oxa-spiro[2.5]oct-6-yl ester]
GI50 (SU-DHL-16): 1.9 nM
IC50 [1]: 93 pM
GI50 ([2]; Homo sapiens, SR, 5 and 6 day assays): 0.5 nM
inhibition of proliferation of the SR cell line ([2]; concentrations from 1-100 nM, relative to vehicle): 59-75%
Maximal inhibition ([2]; five or six days of exposure): greater than 90%
GI50 (MALME-3M): 53.1 nM
GI50 (MDA-MB-231/ATCC): < 10 nM
GI50 (UACC-257): 1480 nM
GI50 (SN12C): < 10 nM
GI50 (SF-268): 26.1 µM
GI50 (M14): < 10 nM
GI50 (NCI-H23): 6.34 µM
GI50 (H2; B-cell, read-out: Growth Inhibition Relative to Vehicle Control, GI50%): 0.16 nM
Growth Inhibition Relative to Vehicle Control, Maximum Inhibition (H2; H2, FL, 0.01-100 nM, five or six days): 59%
inhibition of proliferation (in words) (Ramos): inhibited the proliferation of all lymphoma lines tested except for the Ramos line
